Experimental data reported in US12655116B2, “Substituted isophthalic acid diamides” (Bayer Aktiengesellschaft, priority 2020, dated 2026).

Experiments:
LOLRI [1] = assay: Pre-emergence herbicidal action against LOLRI; type: in vivo, Lolium rigidum; conditions: Lolium rigidum, 504 h, 320 g/ha
Method in brief: (§1)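 Seeds sown in sandy loam, soil-covered; compound sprayed on soil surface pre-emergence. Application: WP/EC, 600–800 l/ha, 0.2% wetting agent. Readout: visual % damage at 3 weeks.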

POLCO [2] = assay: Pre-emergence herbicidal action against POLCO; type: in vivo, Polygonum convolvulus; conditions: Fallopia convolvulus, 504 h; for pest or weed control at 320 g/ha: dosage 320 g/ha
Method in brief: as §1

MATIN [3] = assay: Post-emergence herbicidal action against MATIN; type: in vivo, Matricaria inodora; conditions: Tripleurospermum inodorum, 504 h; for pest or weed control at 20 g/ha: dosage 20 g/ha; for pest or weed control at 80 g/ha: dosage 80 g/ha
Method in brief: (§2)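 Sandy loam, greenhouse; treatment 2–3 weeks after sowing, one-leaf stage. Aqueous suspension or emulsion from WP/EC sprayed on foliage (600–800 l/ha, 0.2% wetting agent). Readout: visual % action, ~3 weeks.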

ABUTH = assay: Pre-emergence herbicidal action against ABUTH; type: in vivo, Abutilon theophrasti; conditions: Abutilon theophrasti, 504 h; for pest or weed control at 80 g/ha: scored visually after 3 weeks vs untreated controls (100% = plants have died, 0% = like control plants); for pest or weed control at 320 g/ha: Dosage: 320 g/ha, scored visually after 3 weeks
Method in brief: as §1

ALOMY [4] = assay: Pre-emergence herbicidal action against ALOMY; type: in vivo, Alopecurus myosuroides; conditions: Alopecurus myosuroides, pre-emergence, 504 h
Method in brief: as §1

SETVI [5] = assay: Post-emergence herbicidal action against SETVI; type: in vivo, Setaria viridis; conditions: Setaria viridis, 504 h; for pest or weed control at 20 g/ha: dosage 20 g/ha; for pest or weed control at 80 g/ha: dosage 80 g/ha
Method in brief: as §2

VERPE [6] = assay: Post-emergence herbicidal action against VERPE; type: in vivo, Veronica persica; conditions: Veronica persica, 504 h
Method in brief: as §2

STEME = assay: Pre-emergence herbicidal action against STEME; type: in vivo, Stellaria media; conditions: Stellaria media, 504 h; for pest or weed control at 80 g/ha: dosage 80 g/ha; for pest or weed control at 320 g/ha: dosage 320 g/ha
Method in brief: as §1

ECHCG [7] = assay: Post-emergence herbicidal action against ECHCG; type: in vivo, Echinochloa crus-galli; conditions: Echinochloa crus-galli, 504 h; for pest or weed control at 20 g/ha: dosage 20 g/ha; for pest or weed control at 80 g/ha: dosage 80 g/ha
Method in brief: as §2

VERPE [8] = assay: Pre-emergence herbicidal action against VERPE; type: in vivo, Veronica persica; conditions: Veronica persica, 504 h; for pest or weed control at 320 g/ha: dosage 320 g/ha
Method in brief: as §1

POLCO [9] = assay: Post-emergence herbicidal action against POLCO; type: in vivo, Polygonum convolvulus; conditions: Fallopia convolvulus, 504 h, dosage 80 g/ha
Method in brief: as §2

VIOTR [10] = assay: Pre-emergence herbicidal action against VIOTR; type: in vivo, Viola tricolor; conditions: Viola tricolor, 504 h; for pest or weed control at 80 g/ha: dosage 80 g/ha; for pest or weed control at 320 g/ha: dosage 320 g/ha
Method in brief: as §1

LOLRI [11] = assay: Post-emergence herbicidal action against LOLRI; type: in vivo, Lolium rigidum; conditions: Lolium rigidum, 504 h; for pest or weed control at 20 g/ha: dosage 20 g/ha; for pest or weed control at 80 g/ha: dosage 80 g/ha
Method in brief: as §2

HORMU [12] = assay: Pre-emergence herbicidal action against HORMU; type: in vivo, Hordeum murinum; conditions: Hordeum murinum, 504 h, pre-emergence
Method in brief: as §1

ALOMY [13] = assay: Post-emergence herbicidal action against ALOMY; type: in vivo, Alopecurus myosuroides; conditions: Alopecurus myosuroides, 504 h, visual assessment about 3 weeks after treatment vs untreated controls; for pest or weed control at 20 g/ha: dosage 20 g/ha; for pest or weed control at 80 g/ha: dosage 80 g/ha
Method in brief: as §2

PHBPU = assay: Post-emergence herbicidal action against PHBPU; type: in vivo, Pharbitis purpurea; conditions: Ipomoea purpurea, 504 h; for pest or weed control at 80 g/ha: dosage 80 g/ha
Method in brief: as §2

AVEFA = assay: Post-emergence herbicidal action against AVEFA; type: in vivo, Avena fatua; conditions: Avena fatua, 504 h, visual assessment about 3 weeks after treatment, 100% = plants have died, 0% = like control plants
Method in brief: as §2

VIOTR [14] = assay: Post-emergence herbicidal action against VIOTR; type: in vivo, Viola tricolor; conditions: Viola tricolor, 504 h
Method in brief: as §2

AMARE = assay: Post-emergence herbicidal action against AMARE; type: in vivo, Amaranthus retroflexus; conditions: Amaranthus retroflexus, 504 h, visual assessment about 3 weeks after treatment, 100% = plants have died, 0% = like control plants
Method in brief: as §2

MATIN [15] = assay: Pre-emergence herbicidal action against MATIN; type: in vivo, Matricaria inodora; conditions: Tripleurospermum inodorum, 504 h; for pest or weed control at 80 g/ha: dosage 80 g/ha; for pest or weed control at 320 g/ha: dosage 320 g/ha
Method in brief: as §1

SETVI [16] = assay: Pre-emergence herbicidal action against SETVI; type: in vivo, Setaria viridis; conditions: Setaria viridis, 504 h; for pest or weed control at 80 g/ha: dosage 80 g/ha; for pest or weed control at 320 g/ha: dosage 320 g/ha
Method in brief: as §1

HORMU [17] = assay: Post-emergence herbicidal action against HORMU; type: in vivo, Hordeum murinum; conditions: Hordeum murinum, 504 h; for pest or weed control at 80 g/ha: dosage 80 g/ha
Method in brief: as §2

ECHCG [18] = assay: Pre-emergence herbicidal action against ECHCG; type: in vivo, Echinochloa crus-galli; conditions: Echinochloa crus-galli, 504 h
Method in brief: as §1

[19] = 100% = plants have died, 0% = like control plants
[20] = scored visually after 3 weeks, 100% = plants have died, 0% = like control plants

SMILES: CCn1nnnc1NC(=O)c1ccc(C(F)(F)F)c(C(=O)NC)c1SC [Example 2-81]
- pest or weed control at 320 g/ha (LOLRI [1]): 90%
- pest or weed control at 320 g/ha (POLCO [2]): 100%
- pest or weed control at 20 g/ha (MATIN [3]): 100%
- pest or weed control at 80 g/ha (MATIN [3]): 100%
- pest or weed control at 80 g/ha (ABUTH): 100%
- pest or weed control at 320 g/ha (ABUTH; [19]): 100%
- pest or weed control at 320 g/ha (ALOMY [4]; [20]): 90%
- pest or weed control at 20 g/ha (SETVI [5]): 90%
- pest or weed control at 80 g/ha (SETVI [5]): 90%
- pest or weed control at 20 g/ha (VERPE [6]): 80%
- pest or weed control at 80 g/ha (VERPE [6]): 90%
- pest or weed control at 80 g/ha (STEME): 90%
- pest or weed control at 320 g/ha (STEME): 100%
- pest or weed control at 20 g/ha (ECHCG [7]): 90%
- pest or weed control at 80 g/ha (ECHCG [7]): 90%
- pest or weed control at 80 g/ha (VERPE [8]; dosage 80 g/ha): 90%
- pest or weed control at 320 g/ha (VERPE [8]): 90%
- pest or weed control at 80 g/ha (POLCO [9]): 80%
- pest or weed control at 80 g/ha (VIOTR [10]): 90%
- pest or weed control at 320 g/ha (VIOTR [10]): 100%
- pest or weed control at 20 g/ha (LOLRI [11]): 80%
- pest or weed control at 80 g/ha (LOLRI [11]): 90%
- pest or weed control at 80 g/ha (HORMU [12]): 90%
- pest or weed control at 320 g/ha (HORMU [12]): 100%
- pest or weed control at 20 g/ha (ALOMY [13]): 80%
- pest or weed control at 80 g/ha (ALOMY [13]): 90%
- pest or weed control at 80 g/ha (PHBPU): 90%
- pest or weed control at 20 g/ha (AVEFA): 90%
- pest or weed control at 80 g/ha (AVEFA): 100%
- pest or weed control at 80 g/ha (VIOTR [14]): 90%
- pest or weed control at 20 g/ha (AMARE): 90%
- pest or weed control at 80 g/ha (AMARE): 90%
- pest or weed control at 80 g/ha (MATIN [15]): 100%
- pest or weed control at 320 g/ha (MATIN [15]): 100%
- pest or weed control at 80 g/ha (SETVI [16]): 100%
- pest or weed control at 320 g/ha (SETVI [16]): 100%
- pest or weed control at 80 g/ha (HORMU [17]): 80%
- pest or weed control at 80 g/ha (ECHCG [18]): 100%
- pest or weed control at 320 g/ha (ECHCG [18]): 100%

SMILES: CCn1nnnc1NC(=O)c1ccc(C(F)(F)F)c(C(=O)NC)c1Cl [Example 2-129]
- pest or weed control at 320 g/ha (LOLRI [1]): 100%
- pest or weed control at 20 g/ha (POLCO [2]; dosage 20 g/ha): 100%
- pest or weed control at 80 g/ha (POLCO [2]; dosage 80 g/ha): 100%
- pest or weed control at 320 g/ha (POLCO [2]): 100%
- pest or weed control at 5 g/ha (MATIN [3]; dosage 5 g/ha): 80%
- pest or weed control at 20 g/ha (MATIN [3]): 100%
- pest or weed control at 80 g/ha (MATIN [3]): 100%
- pest or weed control at 80 g/ha (ABUTH): 100%
- pest or weed control at 320 g/ha (ABUTH; [19]): 100%
- pest or weed control at 20 g/ha (ABUTH; dosage 20 g/ha, scored visually after 3 weeks vs untreated controls, 100% = plants have died, 0% = like control plants, read-out: Pre-emergence action against ABUTH (herbicidal activity in percent)): 100%
- pest or weed control at 80 g/ha (ALOMY [4]; 80 g/ha, scored visually after 3 weeks vs untreated controls (100% = plants have died, 0% = like control plants)): 100%
- pest or weed control at 20 g/ha (ALOMY [4]; 20 g/ha, scored visually after 3 weeks, 100% = plants have died, 0% = like control plants): 90%
- pest or weed control at 320 g/ha (ALOMY [4]; [20]): 100%
- pest or weed control at 5 g/ha (SETVI [5]; dosage 5 g/ha): 100%
- pest or weed control at 20 g/ha (SETVI [5]): 100%
- pest or weed control at 80 g/ha (SETVI [5]): 100%
- pest or weed control at 20 g/ha (VERPE [6]): 80%
- pest or weed control at 80 g/ha (VERPE [6]): 90%
- pest or weed control at 20 g/ha (STEME; dosage 20 g/ha): 80%
- pest or weed control at 80 g/ha (STEME): 80%
- pest or weed control at 320 g/ha (STEME): 100%
- pest or weed control at 20 g/ha (ECHCG [7]): 100%
- pest or weed control at 80 g/ha (ECHCG [7]): 100%
- pest or weed control at 320 g/ha (VERPE [8]): 100%
- pest or weed control at 80 g/ha (POLCO [9]): 100%
- pest or weed control at 20 g/ha (VIOTR [10]; dosage 20 g/ha): 100%
- pest or weed control at 80 g/ha (VIOTR [10]): 100%
- pest or weed control at 320 g/ha (VIOTR [10]): 100%
- pest or weed control at 20 g/ha (LOLRI [11]): 100%
- pest or weed control at 80 g/ha (LOLRI [11]): 100%
- pest or weed control at 80 g/ha (HORMU [12]): 90%
- pest or weed control at 320 g/ha (HORMU [12]): 100%
- pest or weed control at 5 g/ha (ALOMY [13]; dosage 5 g/ha): 100%
- pest or weed control at 20 g/ha (ALOMY [13]): 100%
- pest or weed control at 80 g/ha (ALOMY [13]): 100%
- pest or weed control at 20 g/ha (PHBPU; dosage 20 g/ha): 100%
- pest or weed control at 80 g/ha (PHBPU): 100%
- pest or weed control at 5 g/ha (AVEFA; 5 g/ha): 100%
- pest or weed control at 20 g/ha (AVEFA): 100%
- pest or weed control at 80 g/ha (AVEFA): 100%
- pest or weed control at 5 g/ha (VIOTR [14]; 5 g/ha): 80%
- pest or weed control at 20 g/ha (VIOTR [14]; 20 g/ha): 100%
- pest or weed control at 80 g/ha (VIOTR [14]): 100%
- pest or weed control at 20 g/ha (AMARE): 100%
- pest or weed control at 80 g/ha (AMARE): 100%
- pest or weed control at 20 g/ha (MATIN [15]; dosage 20 g/ha): 100%
- pest or weed control at 80 g/ha (MATIN [15]): 100%
- pest or weed control at 320 g/ha (MATIN [15]): 100%
- pest or weed control at 20 g/ha (SETVI [16]; dosage 20 g/ha): 100%
- pest or weed control at 80 g/ha (SETVI [16]): 100%
- pest or weed control at 320 g/ha (SETVI [16]): 100%
- pest or weed control at 5 g/ha (HORMU [17]; dosage 5 g/ha): 80%
- pest or weed control at 20 g/ha (HORMU [17]; dosage 20 g/ha): 90%
- pest or weed control at 80 g/ha (HORMU [17]): 100%
- pest or weed control at 80 g/ha (ECHCG [18]): 100%
- pest or weed control at 320 g/ha (ECHCG [18]): 100%
